Conditions: in vivo
Procedure: The primary objectives were to assess iron uptake and ferric maltol pharmacokinetics. Serum iron and TSAT provided measures of iron uptake. In adults, dissociated maltol undergoes rapid glucuronidation and is cleared in urine as maltol glucuronide (36); therefore, in this study, plasma maltol glucuronide was measured to confirm the rate of clearance in children.
Sparse pharmacokinetic blood sampling was performed at baseline before the morning dose and at prespecified collection windows 0.5–6 hours after the morning dose on days 1 and 10, giving 3 to 6 samples per time point. The post-dose pharmacokinetic sample collection windows were 0.5–<1, 1–<2, 2–<3, 3–<4, and 4–<6 hours, with patients assigned to post-dose pharmacokinetic blood sampling schedules in sequential order at randomization. Individuals had the same schedule on days 1 and 10. Plasma maltol glucuronide and serum iron and TSAT were measured at each time point to calculate standard pharmacokinetic parameters.
The observed values for plasma maltol glucuronide and serum iron and TSAT were summarized by dose group and visit for the ITT population, as were changes from baseline in serum iron and TSAT. The ITT population was also used in the population pharmacokinetic analysis. […]

- Cmax and AUC of maltol glucuronide: dose dependence: dose-dependent
Structure (SMILES): Cc1occc(=O)c1O[C@@H]1O[C@H](C(=O)O)[C@@H](O)[C@H](O)[C@H]1O [maltol glucuronide]

— paper PMC10191551, “Safety, Tolerability, and Pharmacokinetics of Oral Ferric Maltol in Children With Iron Deficiency: Phase 1 Study” (JPGN Reports, 2021)
